EP0172919A1, “CEPHALOSPORIN DERIVATIVES, PROCESS FOR THEIR PREPARATION, AND THEIR PHARMACEUTICAL USE” (TEIJIN LIMITED, priority 1984, dated 1985)
In brackets after ≈: the same amount, converted by molar mass. Where two headings read alike, the source gives them in different places.

How the values were obtained:
[1] = test system: Enterobacter cloacae 963; assay: In vitro antibacterial activity, two-fold agar-plate dilution method (MIC); assay type: cell-based
Protocol: (§1) In vitro antibacterial activity was determined by the two-fold agar-plate dillution method.
(§2) One loopful of an overnight culture of each test starin in Trypticase-soy broth (10^6 viable cells per mt) was streaked on heart infusion agar (Muller-Hinton Agar) containing graded concentrations of representative test compound, and the minimal inhibitory concentration (MIC) was expressed in terms of µg/ml after incubation at 37°C for 16 hours.
(§3) In vitro antibacterial activities of other compounds of the present invention were determined in the same way as in Example 26.

[2] = test system: Pseudomonas aeruginosa IFO3445; assay: as above; assay type: cell-based
Protocol: as §1, §2, §3

[3] = test system: Staphyrococcus Terajima; assay: as above; assay type: cell-based
Protocol: as §1, §2, §3

[4] = test system: Butilus subtilis ATCC6633; assay: as above; assay type: cell-based; conditions: 37°C for 16 hours
Protocol: as §1, §2

[5] = test system: Escherichia coli K-12C-600; assay: as above; assay type: cell-based; conditions: K12C600, 37°C for 16 hours
Protocol: as §1, §2

[6] = test system: Micrococcus luteus ATCC9341; assay: as above; assay type: cell-based
Protocol: as §1, §2

[7] = test system: Pseudomonas aeruginosa NCTC10490; assay: as above; assay type: cell-based
Protocol: as §1, §2

[8] = test system: Pseudomonas aeruginosa PAO1; assay: as above; assay type: cell-based
Protocol: as §1, §2

[9] = test system: Salmonera schottmuelleri 8001; assay: as above; assay type: cell-based; conditions: 37°C for 16 hours
Protocol: as §1, §2

[10] = test system: Salmonera typhimurium IID 971; assay: as above; assay type: cell-based; conditions: 37°C for 16 hours
Protocol: as §1, §2

[11] = test system: Staphyrococcus aureus FDA209JC-1; assay: as above; assay type: cell-based
Protocol: as §1, §2

[12] = test system: Staphyrococcus aureus MS 353; assay: as above; assay type: cell-based
Protocol: as §1, §2

[13] = test system: Staphyrococcus pyogenes COOK; assay: as above; assay type: cell-based
Protocol: as §1, §2

[14] = test system: E.coli 81; assay: MIC in E.coli 81 (Table IV); assay type: cell-based; conditions: Escherichia coli, 81, 16 h, read-out: MIC (μg/mℓ) in E.coli 81
Protocol: as §1, §2

[15] = test system: E.coli 81; assay: In vivo antibacterial activity: survival of mice infected with E.coli 81; design: species or system ICR strain male mice
Protocol: Experiment was performed in ICR strain male mice (5W) weighing 22 to 25 g. The animals were used in a group of 10 per regimen. Test organism, E.coli 81, was cultured on Mueller-Hinton agar over night at 37°C and suspended in saline to be one minimal lethal dose (5 x 10^5 cells/head). One mililitre of the bacterial suspension was injected intrapenetoreally and, after 15 minutes, mice were treated subcutaneously with various doses of compound (100) and comparative compound B. Survival mice were counted for 4 days and final observation was carried out on day 4.

[16] = test system: E.coli 81; assay: Duration of antibiotic activity: survival of mice dosed before E.coli 81 infection; assay type: in vivo, ICR strain male mice
Protocol: The duration of antibiotic activity of compound (100) was determined.
Experiment was performed in ICR strain male mice (5W). The animals were used in a group of 10 per regimen. A solution of E.coli 81 was injected intrapenetreally at a dose of 5 x 10^5 cell/head. Before one or three hours, the compound (100) was injected subcutaneously at a dose of 0.5 mg/head. Survival mice were counted on day 4 after injection.

[17] = test system: Proleus morgani IFO3848; assay: In vitro antibacterial activity, two-fold agar-plate dilution method (MIC); assay type: cell-based; conditions: 37°C for 16 hours, read-out: MIC
Protocol: as §1, §2, §3

[18] = test system: Proleus vulgaria OX-19; assay: as above; assay type: cell-based; conditions: 37°C for 16 hours, read-out: MIC
Protocol: as §1, §2, §3

[19] = test system: Proleus vulgaris IFO 3850; assay: as above; assay type: cell-based
Protocol: as §1, §2, §3

[20] = test system: Salmonera paratyphi 1015; assay: as above; assay type: cell-based; conditions: 16 h
Protocol: as §1, §2, §3

[21] = test system: Serratia marcescens IAM1184; assay: as above; assay type: cell-based
Protocol: as §1, §2, §3

[22] = Enterobacter cloacae 963, agar dilution, 37°C for 16 hours, read-out: MIC
[23] = Pseudomonas aeruginosa IFO3445, agar dilution, 37°C for 16 hours, read-out: MIC
[24] = Staphyrococcus Terajima, agar dilution, 37°C for 16 hours, read-out: MIC
[25] = Micrococcus luteus ATCC9341, agar dilution, 37°C for 16 hours, read-out: MIC
[26] = Pseudomonas aeruginosa NCTC10490, agar dilution, 37°C for 16 hours, read-out: MIC
[27] = Pseudomonas aeruginosa PAO1, agar dilution, 37°C for 16 hours, read-out: MIC
[28] = Staphyrococcus aureus FDA209JC-1, agar dilution, 37°C for 16 hours, read-out: MIC
[29] = Staphyrococcus aureus MS 353, agar dilution, 37°C for 16 hours, read-out: MIC
[30] = Staphyrococcus pyogenes COOK, agar dilution, 37°C for 16 hours, read-out: MIC
[31] = Dose 0.016 mg/head subcutaneously 15 minutes after intraperitoneal E.coli 81 (5 x 10^5 cells/head)
[32] = Dose 0.032 mg/head subcutaneously 15 minutes after intraperitoneal E.coli 81 (5 x 10^5 cells/head)
[33] = Dose 0.063 mg/head subcutaneously 15 minutes after intraperitoneal E.coli 81 (5 x 10^5 cells/head)
[34] = Dose 0.125 mg/head subcutaneously 15 minutes after intraperitoneal E.coli 81 (5 x 10^5 cells/head)
[35] = Dose 0.25 mg/head subcutaneously 15 minutes after intraperitoneal E.coli 81 (5 x 10^5 cells/head)
[36] = Dose 0.5 mg/head subcutaneously 15 minutes after intraperitoneal E.coli 81 (5 x 10^5 cells/head)

SMILES	MIC [1, 22] [µg/mL]	MIC [2, 23] [µg/mL]	MIC [3, 24] [µg/mL]	MIC [4] [µg/mL]	MIC [5] [µg/mL]	MIC [6, 25] [µg/mL]	MIC [7, 26] [µg/mL]	MIC [8, 27] [µg/mL]	MIC [9] [µg/mL]	MIC [10] [µg/mL]	MIC [11, 28] [µg/mL]	MIC [12, 29] [µg/mL]	MIC [13, 30] [µg/mL]	Survivals percent (%) on day 4 [15, 31] [%]	Survivals percent (%) on day 4 [15, 32] [%]	Survivals percent (%) on day 4 [15, 33] [%]	Survivals percent (%) on day 4 [15, 34] [%]	Survivals percent (%) on day 4 [15, 35] [%]	Survivals percent (%) on day 4 [15, 36] [%]	MIC [17] [µg/mL]	other results
CO/N=C(\C(=O)N[C@@H]1C(=O)N2C(C(=O)[O-])=C(C[N+]34CCCC3CCC4)CS[C@H]12)c1csc(N)n1 (stereo partly drawn) [Compound (100), (6R,7R)-7-[(Z)-2-(2-aminothiazol-4-yl)-2-meth-oxyiminoacetoamido]-3-(1-azabicyclo[3,3,0]octane-l-io)methyl-3-cephem-4-carboxylate]	0.05 (≈ 0.0987 µM)	1.56 (≈ 3.08 µM)	0.39 (≈ 0.77 µM)	0.39 (≈ 0.77 µM)	0.05 (≈ 0.0987 µM)	< 0.0063	0.025 (≈ 0.0493 µM)	0.1 (≈ 0.197 µM)	< 0.0063	0.05 (≈ 0.0987 µM)	0.39 (≈ 0.77 µM)	0.2 (≈ 0.395 µM)	< 0.0063	40	40	50	100	100	100	–	MIC [14]: 0.025 µg/mL (≈ 0.0493 µM); Survival percent (%) Injection before one hour ([16]; 0.5 mg/head subcutaneously one hour before intraperitoneal E.coli 81 (5 x 10^5 cell/head), survival on day 4, mice): 100%; Survival percent (%) Injection before three hours ([16]; 0.5 mg/head subcutaneously three hours before intraperitoneal E.coli 81 (5 x 10^5 cell/head), survival on day 4, mice): 100%; duration of antibiotic activity ([16]; conclusion in words drawn from Table IV): excellent in duration of antibabiotic activity
CO/N=C(\C(=O)N[C@@H]1C(=O)N2C(C(=O)[O-])=C(C[N+]34CCCCC3CCCC4)CS[C@H]12)c1csc(N)n1 (stereo partly drawn) [Compound (104), (6R,7R)-[(Z)-2-(2-aminothiazol-4-yl)-2-methoxyiminoacetoamido]-3-(1-azabicyclo [4,4,0]decane-1-io) methyl-3-cephem-4-carboxylate]	0.1 (≈ 0.187 µM)	1.56 (≈ 2.92 µM)	0.39 (≈ 0.729 µM)	–	–	–	–	–	–	–	–	–	–	–	–	–	–	–	–	0.0125 (≈ 0.0234 µM)	MIC [18]: 0.025 µg/mL (≈ 0.0468 µM); MIC ([19]; Proleus vulgaris IFO 3850, agar dilution, 37°C for 16 hours, read-out: MIC): 0.0125 µg/mL (≈ 0.0234 µM); MIC [20]: 0.025 µg/mL (≈ 0.0468 µM); MIC ([21]; Serratia marcescens IAM1184, agar dilution, 37°C for 16 hours, read-out: MIC): 0.025 µg/mL (≈ 0.0468 µM)
CC(C)(ON=C(C(=O)NC1C(=O)N2C(C(=O)[O-])=C(C[n+]3ccccc3)CSC12)c1csc(N)n1)C(=O)O (centres unmarked) [Comparative compound A]	–	–	–	0.78 (≈ 1.43 µM)	0.2 (≈ 0.366 µM)	–	–	–	0.025 (≈ 0.0457 µM)	0.39 (≈ 0.714 µM)	–	–	–	–	–	–	–	–	–	–	MIC ([1]; Enterobacter cloacae, 963, 16 h): 0.2 µg/mL (≈ 0.366 µM); MIC ([2]; Pseudomonas aeruginosa, IFO3445, 16 h): 1.56 µg/mL (≈ 2.85 µM); MIC ([3]; 16 h): 1.56 µg/mL (≈ 2.85 µM); MIC ([6]; Micrococcus luteus, ATCC9341, 16 h): 0.0063 µg/mL (≈ 0.0115 µM); MIC ([7]; Pseudomonas aeruginosa, NCTC10490, 16 h): 0.39 µg/mL (≈ 0.714 µM); MIC ([8]; Pseudomonas aeruginosa, PAO1, 16 h): 0.1 µg/mL (≈ 0.183 µM); MIC ([11]; 16 h): 1.56 µg/mL (≈ 2.85 µM); MIC ([12]; 16 h): 1.56 µg/mL (≈ 2.85 µM); MIC ([13]; 16 h): 0.0063 µg/mL (≈ 0.0115 µM)
CON=C(C(=O)NC1C(=O)N2C(C(=O)O)=C(CSc3nnnn3C)CSC12)c1csc(N)n1 (centres unmarked) [Comparative compound B]	0.2 (≈ 0.391 µM)	12.5 (≈ 24.4 µM)	0.78 (≈ 1.52 µM)	0.78 (≈ 1.52 µM)	0.05 (≈ 0.0977 µM)	0.39 (≈ 0.762 µM)	0.39 (≈ 0.762 µM)	12.5 (≈ 24.4 µM)	0.0063 (≈ 0.0123 µM)	0.39 (≈ 0.762 µM)	3.12 (≈ 6.1 µM)	0.2 (≈ 0.391 µM)	0.025 (≈ 0.0489 µM)	0	20	30	40	40	40	–	–
CO/N=C(\C(=O)N[C@@H]1C(=O)N2C(C(=O)[O-])=C(C[N+]34CCC(CC3)C(=O)C4)CS[C@H]12)c1csc(N)n1 [Compound (300), (6R,7R)-7-[(Z)-2-(2-aminothiazol-4-yl)-2-methoxyiminoacetoamido]-3-(1-aza-3-carbonyl-bicyclo[2,2,2]octane-l-io)methyl-3-cephem-4-carboxylate]	0.025 (≈ 0.048 µM)	0.39 (≈ 0.749 µM)	0.2 (≈ 0.384 µM)	–	–	–	–	–	–	–	–	–	–	–	–	–	–	–	–	> 0.0063	MIC [18]: 0.025 µg/mL (≈ 0.048 µM); MIC ([19]; 16 h): 0.0125 µg/mL (≈ 0.024 µM); MIC [20]: 0.0125 µg/mL (≈ 0.024 µM); MIC ([21]; Serratia marcescens, IAM1184, 16 h): 0.0125 µg/mL (≈ 0.024 µM)
